Laboratory results reported in patent US20260159512A1, “BCAT2 INHIBITORS” (AGIOS PHARMACEUTICALS, INC., priority 2021, published 2026).

Assays:
Conditions in all cases: average where tested multiple times
[1] = molecular target: T1, BCAT2 (Homo sapiens, UniProt O15382); assay: BCAT2 in vitro enzyme inhibition assay (resazurin/diaphorase-coupled fluorescence); type: biochemical
T1 sequence (O15382 28-392): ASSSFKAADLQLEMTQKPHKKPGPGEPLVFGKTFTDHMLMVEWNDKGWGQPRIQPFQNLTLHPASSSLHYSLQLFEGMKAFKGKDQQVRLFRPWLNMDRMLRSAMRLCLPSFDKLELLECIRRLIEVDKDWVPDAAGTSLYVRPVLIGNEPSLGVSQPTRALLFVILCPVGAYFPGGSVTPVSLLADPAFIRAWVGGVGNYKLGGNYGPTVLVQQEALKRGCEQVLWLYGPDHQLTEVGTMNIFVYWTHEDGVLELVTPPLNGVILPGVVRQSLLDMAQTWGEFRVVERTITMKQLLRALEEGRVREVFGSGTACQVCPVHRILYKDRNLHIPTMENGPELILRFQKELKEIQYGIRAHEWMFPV
Method in brief: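 Coupled fluorescence readout: glutamate formed from L-leucine/α-ketoglutarate transamination drives GDH/NAD/diaphorase reduction of resazurin (Ex 540/Em 590). Human BCAT2 was first exposed 1 h at room temperature to compound, top final 100 μM in 3-fold, 10-point series; substrate reaction ran 1 h before SDS quench, in technical duplicate with DMSO max and enzyme-free min controls.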

[2] = molecular target: T2, hBCAT1 (Homo sapiens, UniProt P54687); assay: BCAT1 in vitro enzyme inhibition assay (resazurin/diaphorase-coupled fluorescence); type: biochemical
T2 sequence (P54687 1-386): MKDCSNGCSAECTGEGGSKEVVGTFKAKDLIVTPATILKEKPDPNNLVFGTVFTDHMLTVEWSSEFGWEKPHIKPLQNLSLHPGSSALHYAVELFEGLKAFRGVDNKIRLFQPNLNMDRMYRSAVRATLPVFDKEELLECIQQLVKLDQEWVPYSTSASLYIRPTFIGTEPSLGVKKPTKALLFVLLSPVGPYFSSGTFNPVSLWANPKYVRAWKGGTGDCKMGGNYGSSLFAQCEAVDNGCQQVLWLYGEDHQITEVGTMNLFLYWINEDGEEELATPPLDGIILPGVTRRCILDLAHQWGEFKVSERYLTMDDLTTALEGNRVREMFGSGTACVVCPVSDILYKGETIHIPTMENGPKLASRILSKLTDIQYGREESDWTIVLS
Method in brief: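 Human BCAT1 activity read by resazurin/diaphorase-coupled fluorescence. Compounds added from 50× DMSO stocks at 1:50, giving 10-point 3-fold titrations from 100 μM top final concentration. Run in technical duplicate; repeat tests averaged.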

[3] = molecular target: T1, BCAT2; assay: BCAT2 in vitro cell inhibition using engineered A549 cells (KMV cell assay, 13C6-KMV by LC-MS/MS); type: cell-based; set-up: The result was an engineered A549 cell line that expressed endogenous BCAT2; endogenous in cells; host or cells: A549 cells with MUT and BCAT1 knocked out by CRISPR/CAS9; key to BCAT2 Cell Inhibition: A: less than or equal to 0.100 μM; B: greater than 0.100 and less than or equal to 0.500 μM; C: greater than 0.500 and less than or equal to 1.000 μM; d: greater than 1.000 μM; E: no fit

Row | SMILES | IC50 [1] [nM] | IC50 [2] [nM] | BCAT2 Cell Inhibition [3] | IC50 [3] [nM]
1 | O=C(N[C@H]1CCC[C@@H](n2c(-c3ccccn3)nc3cnc(-n4ccnn4)cc32)C1)c1ncc(C(F)F)s1 [Example 34, 5-(difluoromethyl)-N-((1S,3R)-3-(2-(pyridin-2-yl)-6-(1H-1,2,3-triazol-1-yl)-1H-imidazo[4,5-c]pyridin-1-yl)cyclohexyl)thiazole-2-carboxamide] | 100 to 500 | > 5000 | E | –
2 | O=C(N[C@H]1CCC[C@@H](n2c(-c3ccccc3F)nc3cnc(-c4cc(F)ccn4)cc32)C1)c1ncc(Cl)s1 [Example 168, 5-chloro-N-((1S,3R)-3-(2-(2-fluorophenyl)-6-(4-fluoropyridin-2-yl)-1H-imidazo[4,5-c]pyridin-1-yl)cyclohexyl)thiazole-2-carboxamide] | ≤ 100 | < 500 | – | ≤ 100
3 | N#CCc1ccccc1-c1nc2cnc(-c3nc[nH]n3)cc2n1[C@@H]1CCC[C@H](NC(=O)c2ncc(Cl)s2)C1 [Example 355, 5-chloro-N-((1S,3R)-3-(2-(2-(cyanomethyl)phenyl)-6-(1H-1,2,4-triazol-3-yl)-1H-imidazo[4,5-c]pyridin-1-yl)cyclohexyl)thiazole-2-carboxamide] | ≤ 100 | < 500 | – | ≤ 100
4 | O=C(N[C@H]1CCC[C@@H](n2c(-c3ccccc3F)nc3cnc(-c4nc[nH]n4)cc32)C1)c1ncc(C(F)(F)F)s1 [Example 85, N-((1S,3R)-3-(2-(2-fluorophenyl)-6-(1H-1,2,4-triazol-3-yl)-1H-imidazo[4,5-c]pyridin-1-yl)cyclohexyl)-5-(trifluoromethyl)thiazole-2-carboxamide] | ≤ 100 | < 500 | – | ≤ 100
5 | CC(C)Cc1nc2cnc(-c3cc(C(F)(F)F)n[nH]3)cc2n1[C@@H]1CCC[C@H](NC(=O)c2ncc(Cl)s2)[C@H]1O [Example 216, 5-chloro-N-((1S,2R,3R)-2-hydroxy-3-(2-isobutyl-6-(3-(trifluoromethyl)-1H-pyrazol-5-yl)-1H-imidazo[4,5-c]pyridin-1-yl)cyclohexyl)thiazole-2-carboxamide] | 100 to 500 | 1000 to 5000 | – | > 1000
6 | CC(C)Cc1nc2cnc(-c3nc[nH]n3)cc2n1[C@@H]1CCC[C@H](NC(=O)c2ncc(Cl)s2)C1 [Example 86, 5-chloro-N-((1S,3R)-3-(2-isobutyl-6-(1H-1,2,4-triazol-3-yl)-1H-imidazo[4,5-c]pyridin-1-yl)cyclohexyl)thiazole-2-carboxamide] | ≤ 100 | < 500 | – | ≤ 100
7 | CO[C@H]1C[C@H](NC(=O)c2ncc(Cl)s2)C[C@H](n2c(CC(C)C)nc3cnc(-n4nccn4)cc32)C1 [Example 421, 5-chloro-N-((1R,3S,5S)-3-(2-isobutyl-6-(2H-1,2,3-triazol-2-yl)-1H-imidazo[4,5-c]pyridin-1-yl)-5-methoxycyclohexyl)thiazole-2-carboxamide] | ≤ 100 | 500 to 1000 | – | 100 to 500
8 | CS(=O)(=O)N1C[C@H](NC(=O)c2ncc(Cl)s2)C[C@H](n2c(-c3ccccc3F)nc3cnc(-c4nc[nH]n4)cc32)C1 [Example 460, 5-chloro-N-((3R,5S)-5-(2-(2-fluorophenyl)-6-(1H-1,2,4-triazol-3-yl)-1H-imidazo[4,5-c]pyridin-1-yl)-1-(methylsulfonyl)piperidin-3-yl)thiazole-2-carboxamide] | ≤ 100 | < 500 | – | ≤ 100
9 | CC(=O)N1C[C@@H](NC(=O)c2ncc(C(F)F)s2)C[C@@H](n2c(-c3ccccc3F)nc3cnc(-c4ncco4)cc32)C1 [Example 127, N-((3S,5R)-1-acetyl-5-(2-(2-fluorophenyl)-6-(oxazol-2-yl)-1H-imidazo[4,5-c]pyridin-1-yl)piperidin-3-yl)-5-(difluoromethyl)thiazole-2-carboxamide] | 100 to 500 | 1000 to 5000 | – | > 1000
10 | O=C(NC1COCC(n2c(-c3ncccc3F)nc3cnc(-n4nccn4)cc32)C1)c1ncc(C(F)F)s1 (single isomer, unassigned) [Example 138, 5-(difluoromethyl)-N-(5-(2-(3-fluoropyridin-2-yl)-6-(2H-1,2,3-triazol-2-yl)-1H-imidazo[4,5-c]pyridin-1-yl)tetrahydro-2H-pyran-3-yl)thiazole-2-carboxamide] | ≤ 100 | 500 to 1000 | – | 100 to 500
11 | O=C(N[C@H]1CCC[C@@H](n2c(-c3ncccc3F)nc3cnc(-n4cncn4)cc32)C1)c1ccc(Br)s1 [Example 16, 5-bromo-N-((1S,3R)-3-(2-(3-fluoropyridin-2-yl)-6-(1H-1,2,4-triazol-1-yl)-1H-imidazo[4,5-c]pyridin-1-yl)cyclohexyl)thiophene-2-carboxamide] | ≤ 100 | < 500 | – | ≤ 100
12 | O=C(N[C@H]1CCC[C@@H](n2c(-c3ccccn3)nc3cnc(-n4nccn4)cc32)C1)c1ncc(C(F)F)s1 [Example 21, 5-(difluoromethyl)-N-((1S,3R)-3-(2-(pyridin-2-yl)-6-(2H-1,2,3-triazol-2-yl)-1H-imidazo[4,5-c]pyridin-1-yl)cyclohexyl)thiazole-2-carboxamide] | ≤ 100 | 500 to 1000 | – | 100 to 500
13 | CO[C@H]1C[C@H](NC(=O)c2ncc(Cl)s2)C[C@H](n2c(-c3ccccc3F)nc3cnc(N4CCC[C@H]4CO)cc32)C1 [Example 429, 5-chloro-N-((1R,3S,5S)-3-(2-(2-fluorophenyl)-6-((S)-2-(hydroxymethyl)pyrrolidin-1-yl)-1H-imidazo[4,5-c]pyridin-1-yl)-5-methoxycyclohexyl)thiazole-2-carboxamide] | ≤ 100 | 500 to 1000 | – | ≤ 100
14 | CC(C)[C@H](O)c1nc2cnc(-c3ncccn3)cc2n1[C@@H]1CCC[C@H](NC(=O)c2ncc(Cl)s2)C1 [Example 171, 5-chloro-N-((1S,3R)-3-(2-((S)-1-hydroxy-2-methylpropyl)-6-(pyrimidin-2-yl)-1H-imidazo[4,5-c]pyridin-1-yl)cyclohexyl)thiazole-2-carboxamide] | ≤ 100 | < 500 | – | > 1000
15 | O=C(NC1CCCC(n2c(-c3ncccc3F)nc3cnc(-c4ccccn4)cc32)C1O)c1ncc(Cl)s1 (stereo not drawn) [Example 220, 5-chloro-N-(3-(2-(3-fluoropyridin-2-yl)-6-(pyridin-2-yl)-1H-imidazo[4,5-c]pyridin-1-yl)-2-hydroxycyclohexyl)thiazole-2-carboxamide] | ≤ 100 | < 500 | – | ≤ 100
16 | O=C(N[C@H]1CCC[C@@H](n2c(-c3ccccc3F)nc3cnc(-c4noc(=O)[nH]4)cc32)C1)c1ncc(Cl)s1 [Example 202, 5-chloro-N-((1S,3R)-3-(2-(2-fluorophenyl)-6-(5-oxo-4,5-dihydro-1,2,4-oxadiazol-3-yl)-1H-imidazo[4,5-c]pyridin-1-yl)cyclohexyl)thiazole-2-carboxamide] | ≤ 100 | < 500 | – | ≤ 100
17 | COc1cccc(F)c1-c1nc2cnc(-c3nc[nH]n3)cc2n1[C@@H]1CCCC[C@H](NC(=O)c2ccc(Cl)s2)[C@H]1O [Example 407, 5-chloro-N-((1S,2R,3R)-3-(2-(2-fluoro-6-methoxyphenyl)-6-(1H-1,2,4-triazol-3-yl)-1H-imidazo[4,5-c]pyridin-1-yl)-2-hydroxycycloheptyl)thiophene-2-carboxamide] | ≤ 100 | < 500 | – | ≤ 100
18 | CC(C)Cc1nc2cnc(-n3nccn3)cc2n1[C@@H]1CCC[C@H](NC(=O)c2ccc(Cl)s2)[C@H]1O [Example 393, 5-chloro-N-((1S,2R,3R)-2-hydroxy-3-(2-isobutyl-6-(2H-1,2,3-triazol-2-yl)-1H-imidazo[4,5-c]pyridin-1-yl)cyclohexyl)thiophene-2-carboxamide] | ≤ 100 | < 500 | – | ≤ 100
